How the values were obtained:
calf brain tubulin = experiment: In vitro tubulin polymerization; assay type: biochemical; conditions: interpolated concentration inducing an initial slope of 0.01 OD/minute; 1.0 mg/ml microtubule protein, 37°; read-out: Tubulin assay EC0.01
Experimental: In vitro Tubulin Polymerization
Twice cycled (2×) calf brain tubulin was prepared following the procedure of Williams and Lee (see Williams, R. C., Jr., and Lee, J. C. Preparation of tubulin from brain. Methods in Enzymology 85, Pt. D: 376-385, 1982) and stored in liquid nitrogen before use. Quantification of tubulin polymerization potency is accomplished following a modified procedure of Swindell, et al., (see Swindell, C. S., Krauss, N. E., Horwitz, S. B., and Ringel, L. Biologically active taxol analogues with deleted A-ring side chain substituents and variable C-2′ configurations. J. Med. Chem. 34: 1176-1184, 1991). These modifications, in part, result in the expression of tubulin polymerization potency as an effective concentration for any given compound. For this method, different concentrations of compound in polymerization buffer (0.1M MES, 1 mM EGTA, 0.5 mM MgCl2, pH 6.6) are added to tubulin in polymerization buffer at 37° in microcuvette wells of a Beckman (Beckman Instruments) Model DU 7400 UV spectrophotometer. A final microtubule protein concentration of 1.0 mg/ml and compound concentration of generally 2.5, 5.0, and 10 μM are used. Initial slopes of OD change measured every 10 seconds were calculated by the program accompanying the instrument after initial and final times of the linear region encompassing at least 3 time points were manually defined. Under these conditions linear variances were generally <10^−6, slopes ranged from 0.03 to 0.002 absorbance unit/minute, and maximum absorbance was 0.15 absorbance units. Effective concentration (EC0.01) is defined as the interpolated concentration capable of inducing an initial slope of 0.01 OD/minute rate and is calculated using the formula: EC0.01=concentration/slope. EC0.01 values are expressed as the mean with standard deviation obtained from 3 different concentrations. EC0.01 values for the compounds in this invention fall in the range 0.01-1000 μM.

[1] = tested on: HCT-116 human colon carcinoma cells; experiment: Cytotoxicity (in vitro) by MTS assay; assay type: cell-based; conditions: HCT-116, 72 hours incubation, MTS, read-out: HTC-116 assay IC50
Experimental: Cytoxicity was assessed in HCT-116 human colon carcinoma cells by MTS (3-(4,5-dimethylthiazol-2-yl)-5-(3-carboxymethoxyphenyl)-2-(4-sulphenyl)-2H-tetrazolium, inner salt) assay as reported in T. L. Riss, et. al., “Comparison of MTT, XTT, and a novel tetrazolium compound MTS for in vitro proliferation and chemosensitivity assays.,” Mol. Biol. Cell 3 (Suppl.): 184a, 1992. Cells were plated at 4,000 cell/well in 96 well microtiter plates and 24 hours later drugs were added and serial diluted. The cells were incubated at 37° form 72 hours at which time the tetrazolium dye, MTS at 333 μg/ml (final concentration), in combination with the electron coupling agent phenazine methosulfate at 25 μM (final concentration) was added. A dehydrogenase enzyme in live cells reduces the MTS to a form that absorbs light at […] which can be quantitated spectrophotometrically. The greater the absorbance the greater the number of live cells. The results are expressed as an IC50, which is the drug concentration required to inhibit cell proliferation (i.e. absorbance at 450 nm) to 50% of that of untreated control cells.

Compound	EC50 (calf brain tubulin)	IC50 [1]
C/C(=C\c1csc(C)n1)C1CC2[C@@H](CCC[C@H](C)[C@H](O)[C@@H](C)C(=O)C(C)(C)[C@@H](O)CC(=O)O1)N2C(=O)c1ccccc1 (relative stereo) [Example 22, 1S-[1R*,3R*(E),7R*,10S,11R*,12R*,16S*]]-17-Phenylcarbonyl-7,11-dihydroxy-8,8,10,12-tetramethyl-3-[1-methyl-2-(2-methyl-4-thiazolyl)ethenyl]-4-oxa-17-azabicyclo[14.1.0]heptadecane-5,9-dione.]	1400 nM	3 nM
C/C(=C\c1csc(C)n1)C1CC2[C@@H](CCC[C@H](C)[C@H](O)[C@@H](C)C(=O)C(C)(C)[C@@H](O)CC(=O)O1)N2C(=O)c1cccs1 (relative stereo) [Example 23, [1S-[1R*,3R*(E),7R*,10S*,11R*,12R*,16S*]]-17-(2-Thienyl)carbonyl-7,11-dihydroxy-8,8,10,12-tetramethyl-3-[1-methyl-2-(2-methyl-4-thiazolyl)ethenyl]-4-oxa-17-azabicyclo[14.1.0]heptadecane-5,9-dione.]	1200 nM	1.6 nM
CCOC(=O)N1C2CC(/C(C)=C/c3csc(C)n3)OC(=O)C[C@H](O)C(C)(C)C(=O)[C@H](C)[C@@H](O)[C@@H](C)CCC[C@H]21 (relative stereo) [Example 24]	1200 nM	7.7 nM

Source: patent US6800653B2, “Epothilone derivatives” (priority 2001, dated 2004)
